This passage reports IC50 and EC50 results from patent US8916708B2, “Urea derivatives and their therapeutic use in the treatment of, inter alia, diseases of the respiratory tract” (Chiesi Farmaceutici S.p.A., priority 2010, dated 2014).

The target of test [1] is T1, Human recombinant p38 enzyme (p38α) (Homo sapiens, UniProt Q16539).
T1 construct: purchased Calbiochem 559324; host or cells: E. coli
Kind of test: p38 Kinase Assay (ATF-2 phosphorylation ELISA). As to conditions: 2h pre-incubation with p38 kinase, ATP 250 μM, 1% DMSO; read-out: p38α inhibition (IC50). It is filed as biochemical. The procedure: Human recombinant p38 enzyme expressed in E. coli and activated by incubation with MKK6 enzyme (Calbiochem #559324) is used as source of enzyme activity.
The assay is carried in high binding, clear, flat bottom 96 well assay plates which have been coated with recombinant ATF-2 (Biosource #PHF0043). Test compounds are incubated with p38 kinase for 2h prior to initiating the kinase assay by the addition of ATP to obtain an assay concentration of 250 μM . Phosphorylation of ATF-2 is detected and quantified using an ELISA. This consists of sequential incubation in the presence of anti-phospho-ATF2, biotinylated anti-IgG and streptavidin-HRP. Incubation with an HRP chromogenic substrate (TMB) results in absorbance that is proportional to the amount of phosphorylated substrate produced. Absorbance is detected using a multiwell plate reader.
Compounds are diluted in DMSO prior to addition to assay buffer, the final DMSO concentration in the assay being 1%.
The IC50 is defined as the concentration at which a given compound achieves 50% inhibition of control.

In test [2] the test system is LPS activated THP-1 cells (TNFα release). The test is described as follows: p38 Functional Assay: TNFα release from LPS activated THP-1 cells. It is filed as cell-based. As to conditions: Homo sapiens, inhibition of TNFα release, 1h pre-treatment then LPS, 0.3% DMSO. As for the experimental part:
Inhibition of cellular p38 depresses the release of TNFα, a functional response which is quantified by measurement of the amount of TNFα in the supernatants of LPS activated THP-1 cells (an immortalised monocytic cell line) or peripheral blood mononuclear cells (PBMC's) isolated from freshly drawn human blood.
Cells seeded in 96 well plates are pre-treated by the addition of p38 inhibitors for 1h followed by addition of lipopolysaccharide (LPS) to activate cytokine production and release. The amount of TNFα released into the cell supernatants is quantified using an R&D Systems enzyme linked immunosorbant assay (ELISA) kit (product DY210) following the manufacturers instructions.
Compounds are diluted in DMSO prior to addition, the final DMSO concentration in the assay being 0.3%. The EC50 is defined as the concentration at which a given compound achieves 50% inhibition of the control.

Molecules are shown by their SMILES.

T1 sequence (Q16539 whole entry): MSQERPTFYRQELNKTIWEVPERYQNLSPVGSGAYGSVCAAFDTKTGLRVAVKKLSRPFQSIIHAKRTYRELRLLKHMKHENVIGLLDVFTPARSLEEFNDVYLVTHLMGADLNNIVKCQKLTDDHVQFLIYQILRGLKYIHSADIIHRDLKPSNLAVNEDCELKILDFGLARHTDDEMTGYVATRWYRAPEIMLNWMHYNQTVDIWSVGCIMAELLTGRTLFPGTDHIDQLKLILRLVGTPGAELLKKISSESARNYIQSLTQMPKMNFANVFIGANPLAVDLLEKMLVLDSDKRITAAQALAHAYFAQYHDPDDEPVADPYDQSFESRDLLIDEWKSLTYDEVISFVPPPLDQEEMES

For `Cc1ccc(-n2nc(C(C)(C)C)cc2NC(=O)N[C@@H]2CC[C@@H](Oc3ccc4nnc(C(C)C)n4c3)c3ccccc32)cc1` [Example 8, 1-(5-tert-Butyl-2-p-tolyl-2H-pyrazol-3-yl)-3-[(1R,4R)-4-(3-isopropyl-[1,2,4]triazolo[4,3-a]pyridin-6-yloxy)-1,2,3,4-tetrahydro-naphthalen-1-yl]-urea], the half-inhibitory concentration (IC50) in test [1] lay in the range of 0.1 to 0.5 µM.
For `Cc1ccc(-n2nc(C(C)(C)C)cc2NC(=O)N[C@H]2C[C@H](Oc3ccc4nnc(C(C)C)n4c3)c3ccccc32)cc1` [Example 13, 1-(5-tert-Butyl-2-p-tolyl-2H-pyrazol-3-yl)-3-[(1S,3S)-3-(3-isopropyl-[1,2,4]triazolo[4,3-a]pyridin-6-yloxy)-indan-1-yl]-urea], in test [1], the IC50 was less than 0.01 µM.
For `Cc1ccc(-n2nc(C(C)(C)C)cc2NC(=O)N[C@H]2CC[C@@H](Oc3ccc4nnc(C(C)C)n4c3)c3ccccc32)cc1` [Example 10, 1-(5-tert-Butyl-2-p-tolyl-2H-pyrazol-3-yl)-3-[(1S,4R)-4-(3-isopropyl-[1,2,4]triazolo[4,3-a]pyridin-6-yloxy)-1,2,3,4-tetrahydro-naphthalen-1-yl]-urea], in test [1], the 50% inhibitory concentration (IC50) was less than 0.01 µM. Moreover, the EC50 in test [2] was less than 0.01 µM.
For `Cc1ccc(-n2nc(C(C)(C)C)cc2NC(=O)N[C@H]2CC[C@H](Oc3ccc4nnc(-c5ccccc5SCCO)n4c3)c3ccccc32)cc1` [Example 20, 1-(5-tert-Butyl-2-p-tolyl-2H-pyrazol-3-yl)-3-((1S,4S)-4-{3-[2-(2-hydroxy-ethylsulfanyl)-phenyl]-[1,2,4]triazolo[4,3-a]pyridin-6-yloxy}-1,2,3,4-tetrahydro-naphthalen-1-yl)-urea], in test [1], the IC50 was less than 0.01 µM.
The same measure, in the same setting: for `Cc1ccc(-n2nc(C(C)(C)C)cc2NC(=O)N[C@H]2CCC[C@H](Oc3ccc4nnc(C(C)C)n4c3)c3ccccc32)cc1` (racemic) [Example 19, (+/−) 1-(5-tert-Butyl-2-p-tolyl-2H-pyrazol-3-yl)-3-[9-(3-isopropyl-[1,2,4]triazolo[4,3-a]pyridin-6-yloxy)-trans-6,7,8,9-tetrahydro-5H-benzocyclohepten-5-yl]-urea] the value was 0.01 to 0.1 µM.
Consider `Cc1ccc(-n2nc(C(C)(C)C)cc2NC(=O)N[C@H]2CC[C@H](Oc3ccc4nnc(C(C)C)n4c3)c3ccccc32)cc1` [Example 11, 1-(5-tert-Butyl-2-p-tolyl-2H-pyrazol-3-yl)-3-[(1S,4S)-4-(3-isopropyl-[1,2,4]triazolo[4,3-a]pyridin-6-yloxy)-1,2,3,4-tetrahydro-naphthalen-1-yl]-urea], for which the IC50 in test [1] is less than 0.01 µM. Also, the EC50 in test [2] is less than 0.01 µM.
In the case of `Cc1ccc(-n2nc(C(C)(C)C)cc2NC(=O)N[C@H]2CC[C@@H](Oc3ccc4nnc(-c5ccccc5OCc5ccccc5)n4c3)c3ccccc32)cc1` (racemic) [Example 5], in test [1], the IC50 was 0.01 to 0.1 µM.
Still for that read-out and setting: for `Cc1ccc(-n2nc(C(C)(C)C)cc2NC(=O)N[C@@H]2CC[C@H](Oc3ccc4nnc(C(C)C)n4c3)c3ccccc32)cc1` [Example 9, 1-(5-tert-Butyl-2-p-tolyl-2H-pyrazol-3-yl)-3-[(1R,4S)-4-(3-isopropyl-[1,2,4]triazolo[4,3-a]pyridin-6-yloxy)-1,2,3,4-tetrahydro-naphthalen-1-yl]-urea] the value was 0.1 to 0.5 µM; for `COc1c(NC(=O)N[C@H]2CC[C@H](Oc3ccc4nnc(C(C)C)n4c3)c3ccccc32)cc(C(C)(C)C)cc1NS(C)(=O)=O` [Example 17, N-(5-tert-Butyl-3-{3-[(1S,4S)-4-(3-isopropyl-[1,2,4]triazolo[4,3-a]pyridin-6-yloxy)-1,2,3,4-tetrahydro-naphthalen-1-yl]-ureido}-2-methoxy-phenyl)-methanesulfonamide], less than 0.01 µM.
`CC(C)c1nnc2ccc(O[C@@H]3CC[C@H](NC(=O)Nc4cc(C(C)(C)C)on4)c4ccccc43)cn12` (racemic) [Example 6, (+/−) 1-(5-tert-Butyl-isoxazol-3-yl)-3-[4-(3-isopropyl-[1,2,4]triazolo[4,3-a]pyridin-6-yloxy)-cis-1,2,3,4-tetrahydro-naphthalen-1-yl]-urea]: the IC50 in test [1] was less than 0.01 µM. The EC50 in test [2] was less than 0.01 µM.
As for `Cc1ccc(-n2nc(C(C)(C)C)cc2NC(=O)N[C@H]2CC[C@H](Oc3ccc4nnc(C(C)C)n4c3)c3ccccc32)cc1` (racemic) [Example 2, (+/−) 1-(5-tert-Butyl-2-p-tolyl-2H-pyrazol-3-yl)-3-[4-(3-isopropyl[1,2,4]triazolo[4,3-a]pyridin-6-yloxy)-trans-1,2,3,4-tetrahydro-naphthalen-1-yl]-urea], in test [1], the IC50 is less than 0.01 µM. Also, the EC50 in test [2] is less than 0.01 µM.
On to `Cc1ccc(-n2nc(C(C)(C)C)cc2NC(=O)N[C@H]2C[C@@H](Oc3ccc4nnc(C(C)C)n4c3)c3ccccc32)cc1` [Example 15, 1-(5-tert-Butyl-2-p-tolyl-2H-pyrazol-3-yl)-3-[(1S,3R)-3-(3-isopropyl-[1,2,4]triazolo[4,3-a]pyridin-6-yloxy)-indan-1-yl]-urea], for which the IC50 in test [1] was in the range of 0.5 to 7 µM.
On the same count and under the same terms, for `Cc1ccc(-n2nc(C(C)(C)C)cc2NC(=O)N[C@H]2CCC[C@@H](Oc3ccc4nnc(C(C)C)n4c3)c3ccccc32)cc1` (racemic) [Example 18, (+/−) 1-(5-tert-Butyl-2-p-tolyl-2H-pyrazol-3-yl)-3-[9-(3-isopropyl-[1,2,4]triazolo[4,3-a]pyridin-6-yloxy)-cis-6,7,8,9-tetrahydro-5H-benzocyclohepten-5-yl]-urea] the value was 0.01 to 0.1 µM; for `Cc1ccc(-n2nc(C(C)(C)C)cc2NC(=O)N[C@@H]2C[C@H](Oc3ccc4nnc(C(C)C)n4c3)c3ccccc32)cc1` [Example 14, 1-(5-tert-Butyl-2-p-tolyl-2H-pyrazol-3-yl)-3-[(1R,3S)-3-(3-isopropyl-[1,2,4]-triazolo[4,3-a]pyridin-6-yloxy)-indan-1-yl]-urea], 0.5 to 7 µM; for `Cc1ccc(-n2nc(C(C)(C)C)cc2NC(=O)N[C@@H]2C[C@@H](Oc3ccc4nnc(C(C)C)n4c3)c3ccccc32)cc1` [Example 12, 1-(5-tert-Butyl-2-p-tolyl-2H-pyrazol-3-yl)-3-[(1R,3R)-3-(3-isopropyl[1,2,4]triazolo[4,3a]pyridin-6-yloxy)-indan-1-yl]urea], 0.1 to 0.5 µM.
Still for that read-out and setting: for `CC(C)c1nnc2ccc(O[C@H]3CC[C@H](NC(=O)Nc4cc(C(C)(C)C)on4)c4ccccc43)cn12` [Example 16, 1-(5-tert-Butyl-isoxazol-3-yl)-3-[(1S,4S)-4-(3-isopropyl-[1,2,4]-triazolo[4,3-a]pyridin-6-yloxy)-1,2,3,4-tetrahydro-naphthalen-1-yl]-urea] the value was less than 0.01 µM.
Take `Cc1ccc(-n2nc(C(C)(C)C)cc2NC(=O)N[C@H]2CC[C@@H](Oc3ccc4nnc(-c5ccccc5Cl)n4c3)c3ccccc32)cc1` (racemic) [Example 3, (+/−)1-(5-tert-Butyl-2-p-tolyl-2H-pyrazol-3-yl)-3-{4-[3-(2-chloro-phenyI)-[1,2,4]triazolo[4,3-a]pyridin-6-yloxy]-cis-1,2,3,4-tetrahydro-naphthalen-1-yl}-urea]: the IC50 in test [1] is less than 0.01 µM. Besides, in test [2], the EC50 was less than 0.01 µM.
`Cc1ccc(-n2nc(C(C)(C)C)cc2NC(=O)N[C@H]2CC[C@@H](Oc3ccc4nnc(C(C)C)n4c3)c3ccccc32)cc1` (racemic) [Example 1, (+/−) 1-(5-tert-Butyl-2-p-tolyl-2H-pyrazol-3-yl)-3-[4-(3-isopropyl-[1,2,4]-triazolo[4,3-a]pyridin-6-yloxy)-cis-1,2,3,4-tetrahydro-naphthalen-1-yl]-urea]: the IC50 in test [1] was less than 0.01 µM. The EC50 in test [2] was less than 0.01 µM.
Turning to `COCC(=O)Nc1cc(CO[C@H]2CC[C@H](NC(=O)Nc3cc(C(C)(C)C)nn3-c3ccc(C)cc3)c3ccccc32)ccn1` [Example 22, N-(4-{(1S,4S)-4-[3-(5-tert-Butyl-2-p-tolyl-2H-pyrazol-3-yl)-ureido]-1,2,3,4-tetrahydro-naphthalen-1-yloxymethyl}-pyridin-2-yl)-2-methoxy-acetamide], the IC50 in test [1] was less than 0.01 µM.
`Cc1ccc(-n2nc(C(C)(C)C)cc2NC(=O)N[C@H]2CC[C@@H](Oc3ccc4nnc(-c5ccccc5O)n4c3)c3ccccc32)cc1` (racemic) [Example 7, (+/−) 1-(5-tert-Butyl-2-p-tolyl-2H-pyrazol-3-yl)-3-{4-[3-(2-hydroxy-phenyl) [1,2,4]triazolo[4,3-a]pyridin-6-yloxy]-cis-1,2,3,4-tetrahydro-naphthalen-1-yl}-urea]: the IC50 in test [1] was less than 0.01 µM. The EC50 in test [2] was less than 0.01 µM.
`Cc1ccc(-n2nc(C(C)(C)C)cc2NC(=O)N[C@H]2CC[C@@H](Oc3ccc4nnc(-c5c(Cl)cccc5Cl)n4c3)c3ccccc32)cc1` (racemic) [Example 4, (+/−)1-(5-tert-Butyl-2-p-tolyl-2H-pyrazol-3-yl)-3-{4-[3-(2,6-dichloro-phenyl)[1,2,4]triazolo[4,3-a]pyridin-6-yloxy]-cis-1,2,3,4-tetrahydro-naphthalen-1-yl}-urea]: the IC50 in test [1] was less than 0.01 µM. In addition, in test [2], the EC50 was less than 0.01 µM.
